Data as given in PubChem BioAssay (NCI).
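Step 1: Grow cells in 96-well plates. Step 2: Expose to compound for 48 hours at 5 concentrations. Step 3: Interpolate endpoints linearly; if unreached, use highest concentration. GI50 marks 50% less growth. Definition used: TGI = concentration required for complete inhibition of growth.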

Legend:
Assay in all cases: NCI anticancer screen, dose series, 48 h
A549 NSCLC = tested on: A549 NSCLC
CAKI-1 renal = tested on: CAKI-1 renal
COLO 205 colon = tested on: COLO 205 colon
HL-60(TB) leukemia = tested on: HL-60(TB) leukemia
NCI-H23 lung = tested on: NCI-H23 lung
RPMI-8226 leukemia = tested on: RPMI-8226 leukemia
SN12C renal = tested on: SN12C renal
SNB-19 CNS = tested on: SNB-19 CNS
HT29 colon = tested on: HT29 colon
OVCAR-5 ovarian = tested on: OVCAR-5 ovarian

In the case of c1ccc(CN(Cc2ccccn2)Cn2cccn2)nc1, the TGI (A549 NSCLC) is reported as over 100 µM, the TGI (CAKI-1 renal) is reported as over 100 µM and the TGI (COLO 205 colon) is reported as over 100 µM. The TGI (HL-60(TB) leukemia) was 55.8 µM, the TGI (NCI-H23 lung) was over 100 µM and the TGI (RPMI-8226 leukemia) was 75.6 µM. It also gave a TGI (SN12C renal) of over 100 µM and a TGI (SNB-19 CNS) of over 100 µM.
For CC1=C[C@H]2C[C@@]3(C)O[C@@H]([C@]4(C)CC[C@H]([C@@H](C)C(=O)O)OO4)CC3C(C)(C)[C@H]2CC1 (stereo not given in full), the TGI (A549 NSCLC) was 3.62 µM, the TGI (CAKI-1 renal) was 2.89 µM and the TGI (COLO 205 colon) was 3.31 µM. The TGI (HL-60(TB) leukemia) was 0.306 µM, the TGI (HT29 colon) was 1.77 µM and the TGI (NCI-H23 lung) was 3.55 µM. For the same compound, the TGI (OVCAR-5 ovarian) was 4.67 µM, the TGI (SN12C renal) was 2.79 µM and the TGI (SNB-19 CNS) was 3.28 µM.
Work on OCC(O)C(OC1OC(CO)C(O)C(O)C1O)c1nn(-c2ccc(F)cc2)c2nc3cc(Cl)c(Cl)cc3cc12 (stereo not given) yielded a TGI (HT29 colon) of over 100 µM, a TGI (NCI-H23 lung) of over 100 µM and a TGI (OVCAR-5 ovarian) of over 100 µM. The TGI (RPMI-8226 leukemia) was over 100 µM, the TGI (SN12C renal) was over 100 µM and the TGI (SNB-19 CNS) was over 100 µM.
Compound O=C1C=Cc2noc3cccc1c23 has a TGI (A549 NSCLC) of 38.7 µM, a TGI (CAKI-1 renal) of 25.4 µM and a TGI (COLO 205 colon) of 34 µM. It also gave a TGI (HL-60(TB) leukemia) of 3.67 µM, a TGI (HT29 colon) of 79.7 µM and a TGI (NCI-H23 lung) of 26 µM. The TGI (OVCAR-5 ovarian) was 28.4 µM, the TGI (SN12C renal) was 27.3 µM and the TGI (SNB-19 CNS) was 31.3 µM.
COCCn1cc(-c2csc(-c3c[nH]c4ccc(F)cc34)n2)c2cccnc21 showed a GI50 (A549 NSCLC) of 4.51 µM, a TGI (A549 NSCLC) of over 100 µM and a GI50 (CAKI-1 renal) of 9.54 µM. The TGI (CAKI-1 renal) was over 100 µM, the GI50 (COLO 205 colon) was 2.69 µM and the TGI (COLO 205 colon) was over 100 µM. The GI50 (HT29 colon) was 2.9 µM, the TGI (HT29 colon) was over 100 µM and the GI50 (NCI-H23 lung) was 3.88 µM. The TGI (NCI-H23 lung) was over 100 µM, the GI50 (OVCAR-5 ovarian) was 10.1 µM and the TGI (OVCAR-5 ovarian) was over 100 µM. It also gave a GI50 (SN12C renal) of over 100 µM, a TGI (SN12C renal) of over 100 µM and a GI50 (SNB-19 CNS) of 98 µM. The TGI (SNB-19 CNS) was over 100 µM.
In the case of O=C(O)C1C2CC3CC2CC31 (stereo not given), the TGI (A549 NSCLC) is reported as over 100 µM, the TGI (CAKI-1 renal) is reported as over 100 µM and the TGI (COLO 205 colon) is reported as over 100 µM. The TGI (HL-60(TB) leukemia) was over 100 µM, the TGI (NCI-H23 lung) was over 100 µM and the TGI (OVCAR-5 ovarian) was over 100 µM. The TGI (RPMI-8226 leukemia) was over 100 µM, the TGI (SN12C renal) was over 100 µM and the TGI (SNB-19 CNS) was over 100 µM.
Cc1ccc(C)c(NC(=O)CCc2n[nH]c(=S)o2)c1 showed a TGI (A549 NSCLC) of over 100 µM, a TGI (CAKI-1 renal) of over 100 µM and a TGI (COLO 205 colon) of over 100 µM. For the same compound, the TGI (HL-60(TB) leukemia) was over 100 µM, the TGI (HT29 colon) was over 100 µM and the TGI (NCI-H23 lung) was over 100 µM. For the same compound, the TGI (OVCAR-5 ovarian) was over 100 µM, the TGI (SN12C renal) was over 100 µM and the TGI (SNB-19 CNS) was over 100 µM.
Work on COc1ccc(/C=C/CO)cc1OC yielded a TGI (A549 NSCLC) of over 100 µM, a TGI (COLO 205 colon) of over 100 µM and a TGI (HT29 colon) of over 100 µM. The TGI (NCI-H23 lung) was over 100 µM, the TGI (OVCAR-5 ovarian) was over 100 µM and the TGI (RPMI-8226 leukemia) was over 100 µM. It also gave a TGI (SN12C renal) of over 100 µM and a TGI (SNB-19 CNS) of over 100 µM.
Work on Cc1ccc(NC(=O)CCC(=O)C(C#N)c2ccc(Cl)cc2)cc1C (stereo not given) yielded a TGI (A549 NSCLC) of over 100 µM, a TGI (CAKI-1 renal) of over 100 µM and a TGI (HL-60(TB) leukemia) of over 100 µM. For the same compound, the TGI (HT29 colon) was over 100 µM, the TGI (NCI-H23 lung) was over 100 µM and the TGI (OVCAR-5 ovarian) was over 100 µM. The TGI (RPMI-8226 leukemia) was over 100 µM, the TGI (SN12C renal) was over 100 µM and the TGI (SNB-19 CNS) was over 100 µM.
S=C1OC2C3C4CC5C3C(O1)C1C5C4C21 (stereo not given) was tested, and the TGI (A549 NSCLC) was over 100 µM, the TGI (CAKI-1 renal) was over 100 µM and the TGI (COLO 205 colon) was over 100 µM. The TGI (HL-60(TB) leukemia) was over 100 µM, the TGI (HT29 colon) was over 100 µM and the TGI (OVCAR-5 ovarian) was over 100 µM. It also gave a TGI (RPMI-8226 leukemia) of over 100 µM, a TGI (SN12C renal) of over 100 µM and a TGI (SNB-19 CNS) of over 100 µM.
O=C(O)CCN1C(=O)/C(=C/C(Cl)=C/c2ccccc2)SC1=S gave a GI50 (A549 NSCLC) of 3.52 µM, a TGI (A549 NSCLC) of 15.1 µM and a GI50 (CAKI-1 renal) of 2.2 µM. For the same compound, the TGI (CAKI-1 renal) was 5.62 µM, the GI50 (COLO 205 colon) was 2.86 µM and the TGI (COLO 205 colon) was 6.71 µM. For the same compound, the GI50 (HL-60(TB) leukemia) was 1.85 µM, the TGI (HL-60(TB) leukemia) was 7.64 µM and the GI50 (HT29 colon) was 2.57 µM. It also gave a TGI (HT29 colon) of 5.88 µM, a GI50 (NCI-H23 lung) of 1.96 µM and a TGI (NCI-H23 lung) of 4.63 µM. The GI50 (OVCAR-5 ovarian) was 2.77 µM, the TGI (OVCAR-5 ovarian) was 6.8 µM and the GI50 (SN12C renal) was 2.67 µM. For the same compound, the TGI (SN12C renal) was 9.41 µM, the GI50 (SNB-19 CNS) was 3.41 µM and the TGI (SNB-19 CNS) was 13.3 µM.
